Assay results as given in patent US12534451B2, “Small molecule modulators of PanK” (St. Jude Children's Research Hospital, priority 2019, dated 2026).

System: Human C3A [HepG2/C3A] cells
Experiment: Cellular total CoA determination in C3A cells
Format: cell-based
Settings: 24 hrs of treatment
Protocol: Human C3A [HepG2/C3A, derivative of HepG2] cells (ATCC #CRL-10741) were purchased from ATCC® and maintained in Eagle's minimum Essential medium (ATCC) supplemented with 2 mM glutamine, 10% fetal bovine serum (FCS, Altanta Biologicals), 50 U/ml penicillin and […] streptomycin. The C3A cell line was confirmed to be mycoplasma-free. Test compounds or vehicle control (DMSO) was added and after 24 hrs of treatment the cells were washed with PBS and harvested and subjected to total CoA determination.
Cultured cells were resuspended in 2 ml cold water to which 500 μl of 0.25M KOH was added, derivatized with monobromobimane (mBBr, Life technologies) and quantified by HPLC. 30 mg of frozen tissue is homogenized in 2 ml of 1 mM KOH and then derivatized with mBBr. The mBBr derivatized samples were fractionated by reverse-phase HPLC using a Gemini C18 3 μm column (150×4.60 mm) from Phenomenex. The chromatography system was a Waters e2695 separation module with a UV/Vis and fluorescence detector and controlled by Empower 3 software. Solvent A was 50 mM potassium phosphate pH 4.6, and solvent B was 100% acetonitrile. Twenty microliters of sample was injected onto the column, and the flow rate was 0.5 ml/min. The HPLC program was the following: starting solvent mixture of 90% A/10% B, 0-2 min isocratic with 10% B, 2-6 min linear gradient from 10% B to 15% B, 6-18 min concave gradient from 15% B to 40% B, 18-23 min isocratic with 40% B, 23-25 min linear gradient from 40 to 10%, and 25-30 min isocratic with 10% B. The UV/vis detector was set at 393 nm, and the fluorescence detector was set with excitation at 393 nm and emission at 470 nm. The elution position of the mBBr-CoA, was determined by comparison with mBBr-CoA prepared from commercial CoA (Avanti Polar Lipids). The areas under the mBBr-derivatized CoA was integrated and compared to known concentrations of the mBBr-CoA standard.

SMILES | C3A CoA% elevation [%]
O=C(Cc1ccc(C2CC2)cc1)N1CCN(c2nc3c(F)cccc3s2)CC1 [PZ-4299] | 228.4
O=C(Cc1ccc(C2CC2)cc1)N1CCN(c2nc3cccnc3o2)CC1 [PZ-4301] | 268.3
CS(=O)(=O)Nc1ccc(CC(=O)N2CCN(c3nc4ccccc4s3)CC2)cc1 [PZ-4294] | 102.23
CCS(=O)(=O)Nc1ccc(CC(=O)N2CCN(c3ccc(Cl)nn3)CC2)cc1 [PZ-4216] | 54.9
CS(=O)(=O)Nc1ccc(CC(=O)N2CCN(c3nc4ncccc4s3)CC2)cc1 [PZ-4320] | 58
CS(=O)(=O)Nc1ccc(CC(=O)N2CCN(c3nc4c(F)cccc4s3)CC2)cc1 [PZ-4322] | 171.6
CN(C)c1ccc(CC(=O)N2CCN(c3ccc(Cl)nn3)CC2)cc1 [PZ-4061, 1-(4-(6-chloropyridazin-3-yl)piperazin-1-yl)-2-(4-(dimethylamino)phenyl)ethanone] | 418.7
O=C(Cc1ccc(C2CC2)cc1)N1CCN(c2ccc(C(F)(F)F)nn2)CC1 [PZ-4283, 2-(4-cyclopropylphenyl)-1-(4-(6-(trifluoromethyl)pyridazin-3-yl)piperazin-1-yl)ethanone] | 218.2
CC(=O)Nc1ccc(CC(=O)N2CCN(c3ccc(Cl)nn3)CC2)cc1 [PZ-4071, N-(4-(2-(4-(6-chloropyridazin-3-yl)piperazin-1-yl)-2-oxoethyl)phenyl)acetamide] | 185.3
CN(C)c1ccc(CC(=O)N2CCN(c3ccc(C#N)nn3)CC2)cc1 [PZ-4060, 6-(4-(2-(4-(dimethylamino)phenyl)acetyl)piperazin-1-yl)pyridazine-3-carbonitrile] | 230.5
CS(=O)(=O)Nc1ccc(CC(=O)N2CCN(c3ccc(C#N)nn3)CC2)cc1 [PZ-4202] | 183.3
CS(=O)(=O)Nc1ccc(CC(=O)N2CCN(c3ccc(C(F)(F)F)nn3)CC2)cc1 [PZ-4295] | 140.8

Target: human PANK3 (Homo sapiens (Human), UniProt Q9H999)
Sequence (Q9H999 whole entry): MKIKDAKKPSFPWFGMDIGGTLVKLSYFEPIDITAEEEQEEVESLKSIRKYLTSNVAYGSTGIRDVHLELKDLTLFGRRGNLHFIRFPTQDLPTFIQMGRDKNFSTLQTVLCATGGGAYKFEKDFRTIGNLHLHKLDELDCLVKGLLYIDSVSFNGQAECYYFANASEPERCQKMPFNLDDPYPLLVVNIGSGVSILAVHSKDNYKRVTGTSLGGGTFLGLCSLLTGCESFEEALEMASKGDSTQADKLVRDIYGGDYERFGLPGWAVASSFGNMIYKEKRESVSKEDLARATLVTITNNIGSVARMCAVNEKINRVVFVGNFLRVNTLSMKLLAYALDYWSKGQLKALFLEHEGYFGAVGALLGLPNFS
Experiment: PANK activity assay (radiochemical, D-[1-14C]pantothenate)
Format: biochemical
Settings: 5 nM human PANK3, 2.5 mM ATP, 45 μM pantothenate, 10 min at 37° C.; average ± data range
Protocol: The PanK activity and Surface Plasmon Resonance assays were conducted as explained in the literature.
If the IC^50 was determined to be in the nM range then the assay was repeated in the presence of 0-1 μM or 0-0.1 μM compound to more precisely determine the IC^50. All the experiments were repeated twice in duplicate and the data were an average ±data range.
The experiments mimicking the mixture of ligands present in vivo were performed under different conditions. […] The IC^50 values for the structure-activity study were calculated by fitting the inhibition data to a one-site model of the Michaelis-Menten equation. […] Thus, the data were fit to Morrison's quadratic equation (GraphPad software) that accounts for the impact of enzyme inhibitor binding on the free concentration of inhibitor.

SMILES | IC50 [nM]
O=C(Cc1ccc(C2CC2)cc1)N1CCN(c2nc3c(F)cccc3s2)CC1 [PZ-4299] | 7.2 ± 1.3
O=C(Cc1ccc(C2CC2)cc1)N1CCN(c2nc3cccnc3o2)CC1 [PZ-4301] | 52.9 ± 6.4
CS(=O)(=O)Nc1ccc(CC(=O)N2CCN(c3nc4ccccc4s3)CC2)cc1 [PZ-4294] | 13 ± 1.3
O=C(Cc1ccc(C2CC2)cc1F)N1CCN(c2nc3ccc(F)cc3o2)CC1 [PZ-4383] | 3.4 ± 0.33
O=C(Cc1ccc(C2CC2)cc1F)N1CCN(c2nc3ncc(F)cc3o2)CC1 [PZ-4352] | 0.86 ± 0.078
O=C(Cc1ccc(C2CC2)cc1)N1CCN(c2nc3cc(F)cnc3o2)CC1 [PZ-4463] | 10.3 ± 0.55
CN(C)c1ccc(CC(=O)N2CCN(c3nc4cccnc4o3)CC2)cc1 [PZ-4319] | 346 ± 100
O=C(Cc1ccc(C2CC2)cc1F)N1CCN(c2nc3cccnc3o2)CC1 [PZ-4344] | 7.6 ± 0.48
O=C(Cc1ccc(C2CC2)cc1)N1CCN(c2nc3ncc(Cl)cc3o2)CC1 [PZ-4359] | 1.23 ± 0.17
CS(=O)(=O)Nc1ccc(CC(=O)N2CCN(c3nc4ncccc4s3)CC2)cc1 [PZ-4320] | 1.4 ± 0.16
O=C(Cc1ccc(C2CC2)cc1)N1CCN(c2ncc3ccsc3n2)CC1 [PZ-4479] | 713 ± 294
C[C@H]1CN(c2ccc(Cl)nn2)CCN1C(=O)Cc1ccc(N(C)C)cc1 [PZ-4111] | 11.1 ± 0.7
CS(=O)(=O)Nc1ccc(CC(=O)N2CCN(c3nc4c(F)cccc4s3)CC2)cc1 [PZ-4322] | 4.1 ± 0.49
CS(=O)(=O)Nc1ccc(CC(=O)N2CCN(c3nc4cccnc4o3)CC2)cc1 [PZ-4323] | 9.9 ± 1.6
CC(C)c1ccc(CC(=O)N2CCN(c3nc4cc(F)cnc4o3)[C@@H](C)C2)cc1 [PZ-4475] | 0.76 ± 0.05
O=C(Cc1ccc(C2CC2)cc1)N1CCN(c2nc3cc(F)ccc3o2)CC1 [PZ-4303] | 54 ± 6.4
O=C(Cc1ccc(C2CC2)cc1)N1CCN(c2nc3ccccc3[nH]2)CC1 [PZ-4312] | 987 ± 476
O=C(Cc1ccc(C2CC2)cc1F)N1CCN(c2nc3ncccc3o2)CC1 [PZ-4349] | 2.1 ± 0.26
CC(C)c1ccc(CC(=O)N2CCN(c3nc4ncc(F)cc4o3)CC2)cc1 [PZ-4435] | 0.33 ± 0.02
O=C(Cc1ccc(C2CC2)cc1F)N1CCN(c2nc3ncc(Cl)cc3o2)CC1 [PZ-4361] | 0.81 ± 0.15
CN(c1ccc(CC(=O)N2CCN(c3ccc(Cl)nn3)CC2)cc1)S(C)(=O)=O [PZ-4200] | 120 ± 11.2
CN(C)c1ccc(CC(=O)N2CCN(c3nc4ncc(F)cc4o3)CC2)cc1 [PZ-4467] | 2.62 ± 0.18
Cc1ccc2oc(N3CCN(C(=O)Cc4ccc(C5CC5)cc4)CC3)nc2n1 [PZ-4364] | 77.3 ± 8.2
C[C@H]1CN(C(=O)Cc2ccc(C3CC3)cc2)CCN1c1nc2cc(F)cnc2o1 [PZ-4474] | 1.37 ± 0.14
CN(C)c1ccc(CC(=O)N2CCN(c3nc4cccnc4s3)CC2)cc1 [PZ-4317] | 391 ± 129
CC(=O)Nc1ccc(CC(=O)N2CCN(c3ccc(C#N)nn3)CC2)cc1 [PZ-4070, N-(4-(2-(4-(6-cyanopyridazin-3-yl)piperazin-1-yl)-2-oxoethyl)phenyl)acetamide] | 65 ± 9.8
C[C@@H]1CN(c2nc3cc(F)cnc3o2)CCN1C(=O)Cc1ccc(C2CC2)cc1 [PZ-4470] | 3.88 ± 0.24

SMILES | IC50 [nM]
CC(=O)OCC1(CNC(=O)Cc2ccc(C3CC3)cc2)CN(c2ccc(Cl)nn2)C1 [PZ-4510] | 1110 ± 852
CC(C)c1ccc(CC(=O)N2CCN(c3ncc4ccsc4n3)CC2)cc1 [PZ-4478] | 125 ± 19.2
O=C(Cc1ccc(C2CC2)cc1)N1CCN(c2nc3ccccc3o2)CC1 [PZ-4305] | 173 ± 48.5
O=C(Cc1ccc(Cl)cc1)N1CCN(c2nc3ncc(F)cc3o2)CC1 [PZ-4363] | 37.5 ± 2.4
O=C(Oc1ccc(C2CC2)cc1)N1CCN(c2nc3ncc(F)cc3o2)CC1 [PZ-4436] | 2 ± 0.18
CC(C)c1ccc(CC(=O)N2CCN(c3nc4cc(F)cnc4o3)C[C@H]2C)cc1 [PZ-4471] | 0.88 ± 0.09
CS(=O)(=O)Nc1ccc(CC(=O)N2CCN(c3nc4ncc(F)cc4o3)CC2)cc1 [PZ-4357] | 1.95 ± 0.25
CN(C)c1ccc(CC(=O)N2CCN(c3ccc(C#N)nn3)CC2)cn1 [PZ-4069, 6-(4-(2-(6-(dimethylamino)pyridin-3-yl)acetyl)piperazin-1-yl)pyridazine-3-carbonitrile] | 440 ± 45
O=C(Cc1ccc(C2CC2)cc1)NCC1(CCl)CN(c2nc3cc(F)cnc3o2)C1 [PZ-4472] | 21.8 ± 1.78
O=C(Cc1ccc(C2CC2)cc1)NCC1(CO)CN(c2ccc(Cl)nn2)C1 [PZ-4511, N-((1-(6-chloropyridazin-3-yl)-3-(hydroxymethyl)azetidin-3-yl)methyl)-2-(4-cyclopropylphenyl)acetamide] | 606 ± 237
CC(C)c1ccc(CC(=O)N2CCN(c3nc4cc(F)cnc4o3)CC2)cc1 [PZ-4462] | 1.37 ± 0.16
O=C(Cc1ccc(C2CC2)cc1)NCC1(CCl)CN(c2ccc(Cl)nn2)C1 [PZ-4469, N-((3-(chloromethyl)-1-(6-chloropyridazin-3-yl)azetidin-3-yl)methyl)-2-(4-cyclopropylphenyl)acetamide] | 5.4 ± 0.42
CC(C)c1ccc(CC(=O)NCC2(CCl)CN(c3nc4cc(F)cnc4o3)C2)cc1 [PZ-4473] | 7.51 ± 0.62
CC(C)c1ccc(NC(=O)N2CCN(c3nc4c(F)cc(F)cc4s3)CC2)cc1 [PZ-4434] | 1.04 ± 0.06
O=C(Nc1ccc(C2CC2)cc1F)N1CCN(c2nc3c(F)cc(F)cc3s2)CC1 [PZ-4433] | 1.79 ± 0.09
O=C(Cc1ccc(C2CC2)c(F)c1)N1CCN(c2nc3ncccc3o2)CC1 [PZ-4348] | 5.7 ± 0.49
CC(C)c1ccc(CC(=O)NCC2(CCl)CN(c3ccc(Cl)nn3)C2)cc1 [PZ-4468] | 1.2 ± 0.13
CC(C)c1ccc(CC(=O)N2CCN(c3nc4cccnc4s3)CC2)cc1 [PZ-4432] | 3.95 ± 0.26
O=C(Cc1ccc(C2CC2)c(F)c1)N1CCN(c2nc3ncc(Cl)cc3o2)CC1 [PZ-4360] | 5.6 ± 0.88
O=C(Cc1ccc(C2CC2)cc1)N1CCN(c2nc3cc(F)cnc3o2)CC1 [PZ-4386] | 2.1 ± 0.21
O=C(Cc1ccc(C2CC2)cc1)N1CCN(c2nc3ncc(F)cc3o2)CC1 [PZ-4350, 2-(4-cyclopropylphenyl)-1-(4-(6-fluorooxazolo[4,5-b]pyridin-2-yl)piperazin-1-yl)ethenone] | 1.1 ± 0.12
C[C@@H]1CN(c2ccc(Cl)nn2)CCN1C(=O)Cc1ccc(N(C)C)cc1 [PZ-4112] | 39.7 ± 4.7
CN(C)c1ccc(CC(=O)N2CCN(c3nc4ccccc4s3)CC2)cc1 [PZ-4290] | 370 ± 47
O=C(Cc1ccc(C2CC2)c(F)c1)N1CCN(c2nc3cccnc3o2)CC1 [PZ-4343] | 49 ± 3
CN(C)c1ccc(CC(=O)N2CCN(c3nc4c(F)cccc4s3)CC2)cc1 [PZ-4318] | 183 ± 71
CS(=O)(=O)Nc1ccc(CC(=O)N2CCN(c3nc4cccnc4s3)CC2)cc1 [PZ-4321] | 5.67 ± 0.39
